From US20250018014A1, “METHOD FOR TREATING AND/OR PREVENTING REGNASE-1-RELATED DISEASE” (OSAKA UNIVERSITY, priority 2018, published 2025)
Where two headings read alike, the source gives them in different places. Residues, ends and D or L forms follow the SMILES beside them.

Key:
[1] = molecular target: T1, binding between TBK1 and full-length Regnase-1 (FL_Reg1) (Homo sapiens, UniProt Q5D1E8); assay: Inhibition of kinase-Regnase-1 binding by the compounds (AlphaScreen), TBK1
T1 construct: made in house; host or cells: Expi293 cells
T1 sequence (Q5D1E8 1-599): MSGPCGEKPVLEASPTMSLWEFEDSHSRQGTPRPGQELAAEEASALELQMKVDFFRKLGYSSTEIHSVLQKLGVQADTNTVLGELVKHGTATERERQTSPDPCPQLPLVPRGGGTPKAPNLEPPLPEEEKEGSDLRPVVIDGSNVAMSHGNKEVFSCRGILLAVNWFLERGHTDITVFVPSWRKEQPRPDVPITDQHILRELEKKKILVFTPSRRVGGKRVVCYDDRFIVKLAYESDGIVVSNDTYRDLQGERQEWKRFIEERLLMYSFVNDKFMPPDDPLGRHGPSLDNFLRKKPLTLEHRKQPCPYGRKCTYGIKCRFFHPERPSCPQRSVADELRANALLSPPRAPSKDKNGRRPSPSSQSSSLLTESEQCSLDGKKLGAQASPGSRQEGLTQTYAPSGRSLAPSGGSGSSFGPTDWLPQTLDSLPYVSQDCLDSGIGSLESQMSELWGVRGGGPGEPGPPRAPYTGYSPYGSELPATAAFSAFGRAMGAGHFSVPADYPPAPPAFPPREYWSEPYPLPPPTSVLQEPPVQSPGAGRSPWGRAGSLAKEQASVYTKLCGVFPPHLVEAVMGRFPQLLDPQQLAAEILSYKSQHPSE
Procedure: (§1) As a target protein, a construct having a FLAG tag on the N-terminal side and a recognition sequence for biotin ligase BirA on the C-terminal side of the full-length sequence of human Regnase-1 (UniProt ID: Q5D1E8) was prepared (FL_Reg1). The above-mentioned Regnase-1 was expressed in mammalian Expi293 cells, purified with FLAG M2 agarose, and isolated by gel filtration chromatography. When biotinylation was required, methods from nonpatent documents (BMC biotechnology, 2008,8,41; and Protein Science, 1999,8,921-929) were used.
(§2) After mixing 2.5 nM of the above-mentioned Regnase-1 and the compound, 2.5 nM of IKKβ or TBK1 was added and reacted at room temperature for two hours. Then, Anti FLAG AlphaLISA Acceptor Beads (manufactured by PerkinElmer) and Glutathione-coated AlphaScreen Donor Beads (manufactured by PerkinElmer) were added, and excited luminescence was measured using En Vision (manufactured by PerkinElmer). As the results, the inhibition rate from the signals obtained when adding the compound at each concentration were calculated, by defining the signal obtained with Regnase-1 alone to be 100% inhibition rate, and the signal obtained when the same amount of solvent (DMSO) is added in place of the compound as 0% inhibition rate. The 50% inhibition concentration (μM) was calculated from the obtained dose response curve (Table 12).

[2] = molecular target: T2, binding between IKKβ and full-length Regnase-1 (FL_Reg1) (Homo sapiens, UniProt Q5D1E8); assay: Inhibition of kinase-Regnase-1 binding by the compounds (AlphaScreen), IKKβ
T2 construct: made in house; host or cells: Expi293 cells
T2 sequence (Q5D1E8 1-599): T1 sequence (Q5D1E8 1-599)
Procedure: as §1, §2

[3] = Table 12, 2.5 nM Regnase-1, 2.5 nM TBK1, AlphaScreen, read-out: 50% inhibition concentration, binding between Regnase-1 and TBK1, FL_Reg1
[4] = Table 12, 2.5 nM Regnase-1, 2.5 nM IKKβ, AlphaScreen, read-out: 50% inhibition concentration, binding between Regnase-1 and IKKβ, FL_Reg1
[5] = Table 13, binding between TBK1 and Regnase-1, read-out: Binding inhibition FL_Reg1, 50% inhibition concentration (TBK1)
[6] = Table 14, binding between IKKβ and Regnase-1, read-out: Binding inhibition FL_Reg1, 50% inhibition concentration (IKKβ)

Row | IC50 [1, 3] | IC50 [2, 4] | IC50 [1, 5] | IC50 [2, 6] | SMILES
1 | 19.2 µM | 42.1 µM |  |  | CC[C@H](C)[C@@H]1NC(=O)[C@H](CCCCN)NC(=O)[C@H](Cc2ccccc2)NC(=O)[C@H](Cc2c[nH]c3ccccc23)NC(=O)[C@H](CO)NC(=O)[C@H](CO)NC(=O)[C@H](CC(N)=O)NC(=O)[C@@H]2CCCN2C(=O)[C@@H](C)N(C)C(=O)C[C@@H](C(=O)N2CCCC2)NC(=O)[C@H](Cc2c[nH]c3ccccc23)NC1=O [PP6] (HELM PEPTIDE1{[C[C@H](C(=O)[*:2])N(C)[*:1]].P.N.S.S.W.F.K.I.W.D.[C1CCN([*:1])C1]}$PEPTIDE1,PEPTIDE1,1:R1-11:R3$$$V2.0)
2 |  |  | 13.7 µM | 33.7 µM | CC[C@H](C)[C@@H]1NC(=O)[C@H](CC(N)=O)NC(=O)[C@H]([C@@H](C)CC)NC(=O)[C@H](Cc2ccc(O)cc2)NC(=O)[C@H](Cc2c[nH]c3ccccc23)NC(=O)[C@H](CO)NC(=O)[C@H](CC(N)=O)NC(=O)[C@H](C)N(C)C(=O)C[C@@H](C(=O)N2CCCC2)NC(=O)[C@H](Cc2c[nH]cn2)NC(=O)CNC(=O)[C@H](Cc2c[nH]c3ccccc23)NC1=O [PP15] (HELM PEPTIDE1{[meA].N.S.W.Y.I.N.I.W.G.H.D.[C1CCN([*:1])C1]}$PEPTIDE1,PEPTIDE1,1:R1-12:R3$$$V2.0)
3 | 11.5 µM | 24 µM |  |  | CC[C@H](C)[C@@H]1NC(=O)[C@H](CC(N)=O)NC(=O)[C@H](Cc2ccc(O)cc2)NC(=O)[C@H](Cc2c[nH]c3ccccc23)NC(=O)[C@H](C)NC(=O)[C@H](CC(N)=O)NC(=O)[C@H](CO)NC(=O)[C@H](Cc2c[nH]cn2)NC(=O)[C@H](C)N(C)C(=O)C[C@@H](C(=O)N2CCCC2)NC(=O)[C@H](Cc2c[nH]c3ccccc23)NC1=O [PP5] (HELM PEPTIDE1{[meA].H.S.N.A.W.Y.N.I.W.D.[C1CCN([*:1])C1]}$PEPTIDE1,PEPTIDE1,1:R1-11:R3$$$V2.0)
4 |  |  | 47.6 µM | > 62.1 µM | CC[C@H](C)[C@@H]1NC(=O)[C@H](Cc2c[nH]c3ccccc23)NC(=O)[C@@H](Cc2ccccc2)NC(=O)[C@H](CCCCN)NC(=O)[C@H](C)N(C)C(=O)C[C@@H](C(=O)N2CCCC2)NC(=O)[C@H](CCC(=O)O)NC(=O)[C@H](Cc2ccccc2)NC(=O)[C@H](CO)NC(=O)[C@H](Cc2c[nH]cn2)NC(=O)[C@H](Cc2c[nH]cn2)NC1=O [PP20] (HELM PEPTIDE1{[meA].K.[dF].W.I.H.H.S.F.E.D.[C1CCN([*:1])C1]}$PEPTIDE1,PEPTIDE1,1:R1-11:R3$$$V2.0)
5 |  |  | 5.6 µM | 20.7 µM | CC[C@H](C)[C@@H]1NC(=O)[C@H](CCCCN)NC(=O)[C@H](Cc2ccc(O)cc2)NC(=O)[C@H](Cc2c[nH]c3ccccc23)NC(=O)[C@H](CO)NC(=O)[C@H](CC(N)=O)NC(=O)[C@H](C)N(C)C(=O)C[C@@H](C(=O)N2CCCC2)NC(=O)[C@H](CC(C)C)NC(=O)CNC(=O)[C@H](Cc2c[nH]c3ccccc23)NC1=O [PP21] (HELM PEPTIDE1{[meA].N.S.W.Y.K.I.W.G.L.D.[C1CCN([*:1])C1]}$PEPTIDE1,PEPTIDE1,1:R1-11:R3$$$V2.0)
6 |  |  | 60.9 µM | > 62.1 µM | CC[C@H](C)[C@@H]1NC(=O)[C@H](Cc2c[nH]c3ccccc23)NC(=O)[C@H](CCCNC(=N)N)NC(=O)[C@H](Cc2ccccc2)NC(=O)[C@H](CCC(N)=O)NC(=O)[C@H](C)NC(=O)[C@H](Cc2ccccc2)NC(=O)[C@H](CCCCN)NC(=O)[C@H](C)N(C)C(=O)C[C@@H](C(=O)N2CCCC2)NC(=O)[C@@H]2CCCN2C(=O)[C@H](Cc2ccc(O)cc2)NC1=O [PP11] (HELM PEPTIDE1{[meA].K.F.A.Q.F.R.W.I.Y.P.D.[C1CCN([*:1])C1]}$PEPTIDE1,PEPTIDE1,1:R1-12:R3$$$V2.0)
7 |  |  | > 62.1 µM | > 62.1 µM | CC[C@H](C)[C@@H]1NC(=O)[C@H](Cc2c[nH]c3ccccc23)NC(=O)[C@H](CCC(N)=O)NC(=O)[C@H](Cc2ccc(O)cc2)NC(=O)[C@H](C(C)C)NC(=O)[C@H](C)NC(=O)[C@H](Cc2ccc(O)cc2)NC(=O)[C@H](CCCNC(=N)N)NC(=O)[C@H](C)N(C)C(=O)C[C@@H](C(=O)N2CCCC2)NC(=O)[C@@H]2CCCN2C(=O)[C@H](Cc2ccc(O)cc2)NC1=O [PP12] (HELM PEPTIDE1{[meA].R.Y.A.V.Y.Q.W.I.Y.P.D.[C1CCN([*:1])C1]}$PEPTIDE1,PEPTIDE1,1:R1-12:R3$$$V2.0)
8 | 3.1 µM | 8.3 µM |  |  | CC[C@H](C)[C@@H]1NC(=O)[C@H](CCCNC(=N)N)NC(=O)[C@H](Cc2ccc(O)cc2)NC(=O)[C@H](Cc2c[nH]c3ccccc23)NC(=O)[C@H](C)NC(=O)[C@H](CO)NC(=O)[C@H](C)NC(=O)[C@H](Cc2c[nH]cn2)NC(=O)[C@H](CCCCN)NC(=O)[C@@H](C)N(C)C(=O)C[C@@H](C(=O)N2CCCC2)NC(=O)[C@H](Cc2c[nH]c3ccccc23)NC1=O [PP3] (HELM PEPTIDE1{[C[C@H](C(=O)[*:2])N(C)[*:1]].K.H.A.S.A.W.Y.R.I.W.D.[C1CCN([*:1])C1]}$PEPTIDE1,PEPTIDE1,1:R1-12:R3$$$V2.0)
9 |  |  | 11.4 µM | 26.8 µM | CC[C@H](C)[C@@H]1NC(=O)[C@H](CCCNC(=N)N)NC(=O)[C@H](Cc2ccc(O)cc2)NC(=O)[C@H](Cc2c[nH]c3ccccc23)NC(=O)[C@H](CO)NC(=O)[C@H](CC(N)=O)NC(=O)[C@H](C)N(C)C(=O)C[C@@H](C(=O)N2CCCC2)NC(=O)[C@H](CC(C)C)NC(=O)CNC(=O)[C@H](Cc2c[nH]c3ccccc23)NC1=O [PP22] (HELM PEPTIDE1{[meA].N.S.W.Y.R.I.W.G.L.D.[C1CCN([*:1])C1]}$PEPTIDE1,PEPTIDE1,1:R1-11:R3$$$V2.0)
10 |  |  | < 0.06 µM | < 0.06 µM | CC[C@H](C)[C@@H]1NC(=O)[C@H](CC(=O)O)NC(=O)[C@H](C)N(C)C(=O)C[C@@H](C(=O)N2CCCC2)NC(=O)[C@H](Cc2ccc(O)cc2)NC(=O)[C@H](CC(=O)O)NC(=O)[C@H](Cc2c[nH]c3ccccc23)NC(=O)[C@H](Cc2ccc(O)cc2)NC(=O)[C@H](CC(=O)O)NC(=O)[C@H](Cc2ccccc2)NC(=O)[C@H](Cc2c[nH]c3ccccc23)NC1=O [PP18] (HELM PEPTIDE1{[meA].D.I.W.F.D.Y.W.D.Y.D.[C1CCN([*:1])C1]}$PEPTIDE1,PEPTIDE1,1:R1-11:R3$$$V2.0)
11 | 15.5 µM | 35.8 µM |  |  | CC[C@H](C)[C@@H]1NC(=O)[C@H](CC(N)=O)NC(=O)[C@H](Cc2ccc(O)cc2)NC(=O)[C@H](Cc2c[nH]c3ccccc23)NC(=O)[C@H](CO)NC(=O)[C@H](CC(N)=O)NC(=O)[C@H](C)NC(=O)[C@H](Cc2ccc(O)cc2)NC(=O)CNC(=O)[C@H](C)N(C)C(=O)C[C@@H](C(=O)N2CCCC2)NC(=O)[C@H](Cc2c[nH]c3ccccc23)NC1=O [PP2] (HELM PEPTIDE1{[meA].G.Y.A.N.S.W.Y.N.I.W.D.[C1CCN([*:1])C1]}$PEPTIDE1,PEPTIDE1,1:R1-12:R3$$$V2.0)
12 |  |  | 9.8 µM | 11.4 µM | CC[C@H](C)[C@@H]1NC(=O)[C@H](CO)NC(=O)[C@H](CCCNC(=N)N)NC(=O)[C@H](Cc2ccc(O)cc2)NC(=O)[C@H](Cc2ccc(O)cc2)NC(=O)[C@H](Cc2c[nH]c3ccccc23)NC(=O)[C@H](CO)NC(=O)[C@H](CCC(N)=O)NC(=O)[C@H](Cc2ccc(O)cc2)NC(=O)[C@H](CC(N)=O)NC(=O)[C@H](C)N(C)C(=O)C[C@@H](C(=O)N2CCCC2)NC(=O)[C@H](Cc2c[nH]c3ccccc23)NC1=O [PP10] (HELM PEPTIDE1{[meA].N.Y.Q.S.W.Y.Y.R.S.I.W.D.[C1CCN([*:1])C1]}$PEPTIDE1,PEPTIDE1,1:R1-13:R3$$$V2.0)
13 |  |  | < 0.06 µM | < 0.06 µM | CC[C@H](C)[C@@H]1NC(=O)[C@H](CC(=O)O)NC(=O)[C@H](C)N(C)C(=O)C[C@@H](C(=O)N2CCCC2)NC(=O)[C@H](Cc2c[nH]c3ccccc23)NC(=O)[C@H](CC(=O)O)NC(=O)[C@H](Cc2c[nH]c3ccccc23)NC(=O)[C@H](Cc2ccc(O)cc2)NC(=O)[C@H](CC(=O)O)NC(=O)[C@H](Cc2ccccc2)NC(=O)[C@H](Cc2c[nH]c3ccccc23)NC1=O [PP17] (HELM PEPTIDE1{[meA].D.I.W.F.D.Y.W.D.W.D.[C1CCN([*:1])C1]}$PEPTIDE1,PEPTIDE1,1:R1-11:R3$$$V2.0)
